Data as given in patent US9018233B2, “Diaminoaryl derivatives substituted by carbamate and pesticidal composition containing same” (Kyung Nong Corporation, priority 2012, dated 2015).
Where two headings read alike, the source gives them in different places.

System: Tobacco Cutworm Moth (Spodoptera litura)
Assay: Insecticidal activities against tobacco cutworm moth measured by leaf-dip method
Format: in vivo
Conditions: 96 h, read-out: percent control value
Description: In this test, larvae descended from tobacco cutworm moths (Spodoptera litura), which had been collected in 2009 near Gyeongju area and reared in the laboratory, were used. […] […] The Petri dish was stored under light condition 16:8 hours, 25±1° C. and RH 50-60%, and then the number of larvae survived were counted 24, 48, 72 and 96 hours after the inoculation. As shown in Equations 1 and 2 above, the survival rate was calculated by calibrating the larvae density after treatment with the larvae density before treatment, and the control value is calculated by subtracting the survival rate in the treatment group from the survival rate in the control group and dividing the result by the survival rate in the control group.

[1] = 100 ppm, after 4 days, 2nd instar larvae, leaf-dip

For `CC(C)COC(=O)Nc1cc(Cl)cc(Cl)c1NC(=O)c1cc(Br)nn1-c1ncccc1Cl` [Example 4, isobutyl (2-(3-bromo-1-(3-chloropyridin-2-yl)-1H-pyrazole-5-carboxamido)-3,5-dichlorophenyl)carbamate], the pest or weed control at 100 ppm [1] was ≥ 80%.
With `COC(=O)Nc1cc(Cl)cc(C)c1NC(=O)c1cc(Br)nn1-c1ncccc1Cl` [Example 11, methyl (2-(3-bromo-1-(3-chloropyridin-2-yl)-1H-pyrazole-5-carboxamido)-5-chloro-3-methylphenyl)carbamate] the pest or weed control at 100 ppm [1] was ≥ 80%.
For `CCOC(=O)Nc1cc(Cl)cc(C)c1NC(=O)c1cc(Br)nn1-c1ncccc1Cl` [Example 21, ethyl (2-(3-bromo-1-(3-chloropyridin-2-yl)-1H-pyrazole-5-carboxamido)-5-chloro-3-methylphenyl)carbamate], the pest or weed control at 100 ppm [1] was ≥ 80%.
For `CCCOC(=O)Nc1cc(Cl)cc(C)c1NC(=O)c1cc(Br)nn1-c1ncccc1Cl` [Example 22, propyl (2-(3-bromo-1-(3-chloropyridin-2-yl)-1H-pyrazole-5-carboxamido)-5-chloro-3-methylphenyl)carbamate], the pest or weed control at 100 ppm [1] was ≥ 80%.
In the case of `COC(=O)Nc1cc(C#N)cc(C)c1NC(=O)c1cc(Br)nn1-c1ncccc1Cl` [Example 33, methyl (2-(3-bromo-1-(3-chloropyridin-2-yl)-1H-pyrazole-5-carboxamido)-5-cyano-3-methylphenyl)carbamate], the pest or weed control at 100 ppm [1] is reported as ≥ 80%.
`COC(=O)Nc1cc(Br)cc(Br)c1NC(=O)c1cc(Br)nn1-c1ncccc1Cl` [Example 40, methyl (3,5-dibromo-2-(3-bromo-1-(3-chloropyridin-2-yl)-1H-pyrazole-5-carboxamido)phenyl)carbamate] was tested, and the pest or weed control at 100 ppm [1] was ≥ 80%.
`CC(C)COC(=O)Nc1cc(Br)cc(Br)c1NC(=O)c1cc(Br)nn1-c1ncccc1Cl` [Example 41, isobutyl (3,5-dibromo-2-(3-bromo-1-(3-chloropyridin-2-yl)-1H-pyrazole-5-carboxamido)phenyl)carbamate] was tested, and the pest or weed control at 100 ppm [1] was ≥ 80%.
For `COC(=O)Nc1cc(C(F)(F)F)cc(Cl)c1NC(=O)c1cc(Br)nn1-c1ncccc1Cl` [Example 48, methyl (2-(3-bromo-1-(3-chloropyridin-2-yl)-1H-pyrazole-5-carboxamido)-3-chloro-5-(trifluoromethyl)phenyl)carbamate], the pest or weed control at 100 ppm [1] was ≥ 80%.
With `COC(=O)Nc1cc(C(F)(F)F)cc(Br)c1NC(=O)c1cc(Br)nn1-c1ncccc1Cl` [Example 51, methyl (3-bromo-2-(3-bromo-1-(3-chloropyridin-2-yl)-1H-pyrazole-5-carboxamido)-5-(trifluoromethyl)phenyl)carbamate] the pest or weed control at 100 ppm [1] was ≥ 80%.
`COC(=O)Nc1cccc(C)c1NC(=O)c1cc(Br)nn1-c1ncccc1Cl` [Example 54, Methyl (2-(3-bromo-1-(3-chloropyridin-2-yl)-1H-pyrazole-5-carboxamido)-3-methylphenyl)carbamate] was tested, and the pest or weed control at 100 ppm was ≥ 80%.
`COC(=O)Nc1cc([N+](=O)[O-])cc(C)c1NC(=O)c1cc(Br)nn1-c1ncccc1Cl` [Example 55, Methyl (2-(3-bromo-1-(3-chloropyridin-2-yl)-1H-pyrazole-5-carboxamido)-3-methyl-5-nitrophenyl)carbamate] was tested, and the pest or weed control at 100 ppm [1] was ≥ 80%.
In the case of `COC(=O)Nc1cc(C#N)cc(C)c1NC(=O)c1cc(Cl)nn1-c1ncccc1Cl` [Example 56, methyl (2-(3-chloro-1-(3-chloropyridin-2-yl)-1H-pyrazole-5-carboxamido)-5-cyano-3-methylphenyl)carbamate], the pest or weed control at 100 ppm [1] is reported as ≥ 80%.
For `COC(=O)Nc1cc(C#N)cc(C)c1NC(=O)c1cc(C#N)nn1-c1ncccc1Cl` [Example 57, methyl (2-(1-(3-chloropyridin-2-yl)-3-cyano-1H-pyrazole-5-carboxamido)-5-cyano-3-methylphenyl)carbamate], the pest or weed control at 100 ppm [1] was ≥ 80%.
`COC(=O)Nc1cc(C#N)cc(C)c1NC(=O)c1cc(OC)nn1-c1ncccc1Cl` [Example 58, methyl (2-(1-(3-chloropyridin-2-yl)-3-methoxy-1H-pyrazole-5-carboxamido)-5-cyano-3-methylphenyl)carbamate] was tested, and the pest or weed control at 100 ppm [1] was ≥ 80%.
In the case of `COC(=O)Nc1cc(C#N)cc(C)c1NC(=O)c1cc(OCC(F)(F)F)nn1-c1ncccc1Cl` [Example 60, methyl (2-(3-(2,2,2-trifluoroethoxy)-1-(3-chloropyridin-2-yl)-1H-pyrazole-5-carboxamido)-5-cyano-3-methylphenyl)carbamate], the pest or weed control at 100 ppm [1] is reported as ≥ 80%.
For `COC(=O)Nc1cc(C#N)cc(C)c1NC(=O)c1cc(C(F)(F)F)nn1-c1ncccc1Cl` [Example 61, methyl (2-(1-(3-chloropyridin-2-yl)-3-(trifluoromethyl)-1H-pyrazole-5-carboxamido)-5-cyano-3-methylphenyl)carbamate], the pest or weed control at 100 ppm [1] was ≥ 80%.
For `COC(=O)Nc1cc(C#N)cc(C)c1NC(=O)c1cc(C(F)(F)F)nn1-c1ccccc1Cl` [Example 62, methyl (2-(1-(2-chlorophenyl)-3-(trifluoromethyl)-1H-pyrazole-5-carboxamido)-5-cyano-3-methylphenyl)carbamate], the pest or weed control at 100 ppm [1] was ≥ 80%.
In the case of `CCOC(=O)Nc1cc(C#N)cc(C)c1NC(=O)c1cc(Br)nn1-c1ncccc1Cl` [Example 63, ethyl (2-(3-bromo-1-(3-chloropyridin-2-yl)-1H-pyrazole-5-carboxamido)-5-cyano-3-methylphenyl)carbamate], the pest or weed control at 100 ppm [1] is reported as ≥ 80%.
With `Cc1cc(C#N)cc(NC(=O)OCCCl)c1NC(=O)c1cc(Br)nn1-c1ncccc1Cl` [Example 64, 2-chloroethyl (2-(3-bromo-1-(3-chloropyridin-2-yl)-1H-pyrazole-5-carboxamido)-5-cyano-3-methylphenyl)carbamate] the pest or weed control at 100 ppm [1] was ≥ 80%.
